Values of other authors as cited in US20240216401A1, “COMBINATION THERAPY BY USING AKR1C3-ACTIVATED COMPOUND WITH IMMUNE CHECKPOINT INHIBITOR” (OBI Pharma, Inc., priority 2021, published 2024).

Tested on: tumor
Settings: in vitro and in vivo; references 6, 21; cited from earlier work

## CS(=O)(=O)OCCN(CCBr)c1c(C(=O)NCCOP(=O)(O)O)cc([N+](=O)[O-])cc1[N+](=O)[O-] [PR104]
  anti-tumor activity (in words): good anti-tumor activity
